Laboratory results taken from patent publication US20230055237A1, “COMPOUNDS AND METHODS FOR THE TREATMENT OF CYSTIC FIBROSIS” (Flatley Discovery Lab, LLC, priority 2019, published 2023).

Biological target: T1, CFTR (Homo sapiens, UniProt P13569, DEL508-508)
T1 construct: Primary CF airway epithelial cells were obtained from the UNC Cystic Fibrosis Tissue Procurement and Cell Culture Core; host or cells: primary CF airway epithelial cells, differentiated at the air-liquid interface
Test: Equivalent current assay in primary CF airway epithelial cells (NAUC, combination with 1st site corrector FDL169 or VX-809)
Type: cell-based
Conditions: 37° C., 24 h

[1] = test compound 1 μM in combination with 1st site corrector FDL169 (3 μM)
[2] = test compound 3 μM in combination with 1st site corrector FDL169 (3 μM)
[3] = test compound 1 μM in combination with 1st site corrector VX-809 (3 μM)
[4] = test compound 3 μM in combination with 1st site corrector VX-809 (3 μM)
[5] = test compound 10 μM in combination with 1st site corrector VX-809 (3 μM)
[6] = test compound 10 μM in combination with 1st site corrector FDL169 (3 μM)

T1 sequence (P13569 with tags, fused parts or gaps DEL508-508): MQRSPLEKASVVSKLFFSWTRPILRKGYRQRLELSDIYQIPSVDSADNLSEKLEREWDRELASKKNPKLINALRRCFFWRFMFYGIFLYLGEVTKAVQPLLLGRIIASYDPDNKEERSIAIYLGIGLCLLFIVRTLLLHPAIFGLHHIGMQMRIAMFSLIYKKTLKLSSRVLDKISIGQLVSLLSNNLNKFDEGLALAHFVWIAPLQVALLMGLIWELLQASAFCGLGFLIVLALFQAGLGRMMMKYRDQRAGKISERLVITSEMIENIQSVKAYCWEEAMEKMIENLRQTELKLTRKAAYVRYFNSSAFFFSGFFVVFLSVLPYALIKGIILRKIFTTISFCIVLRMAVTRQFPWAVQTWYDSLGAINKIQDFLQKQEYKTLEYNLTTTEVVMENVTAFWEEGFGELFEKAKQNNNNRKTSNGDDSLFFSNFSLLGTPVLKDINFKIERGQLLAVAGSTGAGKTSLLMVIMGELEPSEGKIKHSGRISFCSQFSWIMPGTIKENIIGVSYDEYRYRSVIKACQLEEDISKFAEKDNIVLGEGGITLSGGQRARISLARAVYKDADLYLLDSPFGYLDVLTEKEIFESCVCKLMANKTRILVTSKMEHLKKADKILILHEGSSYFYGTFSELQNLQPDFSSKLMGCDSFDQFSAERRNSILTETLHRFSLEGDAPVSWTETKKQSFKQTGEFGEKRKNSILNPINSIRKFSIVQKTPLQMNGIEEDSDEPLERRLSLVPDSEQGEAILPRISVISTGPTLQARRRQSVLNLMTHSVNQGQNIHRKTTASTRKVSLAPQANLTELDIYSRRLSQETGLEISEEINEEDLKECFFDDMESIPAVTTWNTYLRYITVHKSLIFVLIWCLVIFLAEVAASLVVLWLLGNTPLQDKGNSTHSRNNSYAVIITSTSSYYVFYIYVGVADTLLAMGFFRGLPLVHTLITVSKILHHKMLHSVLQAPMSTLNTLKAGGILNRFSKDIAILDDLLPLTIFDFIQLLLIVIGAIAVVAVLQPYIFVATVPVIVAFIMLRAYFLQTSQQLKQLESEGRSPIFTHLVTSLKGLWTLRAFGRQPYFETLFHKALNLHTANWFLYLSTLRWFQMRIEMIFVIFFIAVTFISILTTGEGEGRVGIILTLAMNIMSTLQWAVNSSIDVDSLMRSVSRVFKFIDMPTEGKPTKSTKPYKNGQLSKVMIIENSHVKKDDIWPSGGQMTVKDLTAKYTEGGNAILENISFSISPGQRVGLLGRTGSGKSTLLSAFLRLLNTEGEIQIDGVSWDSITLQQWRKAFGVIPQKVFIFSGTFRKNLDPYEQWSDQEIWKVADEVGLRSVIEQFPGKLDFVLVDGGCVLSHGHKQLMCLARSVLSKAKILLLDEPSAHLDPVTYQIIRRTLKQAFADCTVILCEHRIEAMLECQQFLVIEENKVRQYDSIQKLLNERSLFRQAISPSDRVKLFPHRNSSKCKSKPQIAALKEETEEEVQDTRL

Row | Compound | Nauc @ 1 μM [1] | Nauc @ 3 μM [2] | Nauc @ 1 μM [3] | Nauc @ 3 μM [4] | Nauc @ 10 μM [5] | Nauc @ 10 μM [6]
1 | CN(C)CCN(C(=O)[C@H]1[C@H]2CC(F)(F)CN2[C@]2(C(=O)Nc3c(Cl)cc(Cl)cc32)[C@H]1C(=O)O)c1cc(Cl)cc(Cl)c1 [Example 160] | + (NAUC “+” refers to an observed NAUC <140% of positive control) | + (NAUC “+” refers to an observed NAUC <140% of positive control) |  |  |  | 
2 | CN(C(=O)[C@H]1[C@H]2CC(F)(F)CN2[C@]2(C(=O)Nc3c2ccc(Cl)c3Cl)[C@H]1C(=O)O)c1cc(Cl)cc(Cl)c1 (racemic) [Example 100, rac-(1′R,2′S,7a′R)-6,7-dichloro-1-((3,5-dichlorophenyl)(methyl)carbamoyl)-6′,6′-difluoro-2-oxo-1′,2′,5′,6′,7′,7a′-hexahydrospiro[indoline-3,3′-pyrrolizine]-2′-carboxylic acid] |  |  | + (NAUC “+” refers to an observed NAUC <140% of positive control) | + (NAUC “+” refers to an observed NAUC <140% of positive control) | + (NAUC “+” refers to an observed NAUC <140% of positive control) | 
3 | CC(C)(CO)c1cccc(CCNC(=O)[C@H]2[C@H]3CC(F)(F)CN3C3(C(=O)Nc4c(Cl)cc(Cl)cc43)[C@H]2C(=O)O)c1 (stereo partly shown) [Example 293] |  |  |  |  | + (NAUC “+” refers to an observed NAUC <140% of positive control) | 
4 | O=C(O)[C@H]1[C@@H](C(=O)N(CC2CCCCCC2)c2cc(Cl)cc(Cl)c2)[C@H]2CC(F)(F)CN2[C@]12C(=O)Nc1c(Cl)cc(Cl)cc12 [Example 178] | +++ (NAUC “+++” refers to an observed NAUC>170% of positive control) | +++ (NAUC “+++” refers to an observed NAUC>170% of positive control) |  |  |  | ++ (NAUC “++” refers to an observed NAUC 170-140% of positive control)
5 | Cc1cccc(C(F)(F)C2NC3(C(=O)Nc4c(Cl)cc(Cl)cc43)C(C(=O)O)C2C(=O)Nc2cc(Cl)cc(Cl)c2)c1 (stereo not shown) [Example 62] |  |  |  |  | +++ (NAUC “+++” refers to an observed NAUC>170% of positive control) | 
6 | O=C(Nc1ccc2ccccc2c1)[C@H]1[C@H]2CC(F)(F)CN2[C@]2(C(=O)Nc3c(Cl)cc(Cl)cc32)[C@H]1C(=O)O [Example 115] |  |  | + (NAUC “+” refers to an observed NAUC <140% of positive control) | + (NAUC “+” refers to an observed NAUC <140% of positive control) | + (NAUC “+” refers to an observed NAUC <140% of positive control) | 
7 | O=C(Nc1cc(Cl)cc(Cl)c1)C1C2N(CCC2(F)F)C2(C(=O)Nc3c(Cl)cc(Cl)cc32)C1C(=O)O (stereo not shown) [Example 60] |  |  |  | +++ (NAUC “+++” refers to an observed NAUC>170% of positive control) | +++ (NAUC “+++” refers to an observed NAUC>170% of positive control) | 
8 | CN(C(=O)[C@H]1[C@H]2CC(F)(F)CN2C2(C(=O)Nc3c(Cl)cc(Cl)cc32)[C@H]1C(=O)O)c1cc(Cl)c(OC(F)F)c(Cl)c1 (stereo partly shown) [Example 290] |  |  | ++ (NAUC “++” refers to an observed NAUC 170-140% of positive control) | +++ (NAUC “+++” refers to an observed NAUC>170% of positive control) | +++ (NAUC “+++” refers to an observed NAUC>170% of positive control) | 
9 | O=C(O)[C@H]1[C@@H](C(=O)N(CC2CCCCC2)c2cc(Cl)cc(Cl)c2)[C@H]2CC(F)(F)CN2[C@]12C(=O)Nc1c(Cl)cc(Cl)cc12 [Example 177] | +++ (NAUC “+++” refers to an observed NAUC>170% of positive control) | ++ (NAUC “++” refers to an observed NAUC 170-140% of positive control) |  |  |  | ++ (NAUC “++” refers to an observed NAUC 170-140% of positive control)
10 | CN(C(=O)[C@H]1[C@H]2CC(F)(F)CN2C2(C(=O)Nc3c(Cl)cccc32)[C@H]1C(=O)O)c1cc(Cl)cc(Cl)c1 (stereo partly shown) [Example 104] |  |  |  |  |  | + (NAUC “+” refers to an observed NAUC <140% of positive control)
11 | CN(C(=O)[C@H]1[C@H]2CC(F)(F)CN2[C@]2(C(=O)Nc3c(Cl)cc(Cl)cc32)[C@H]1C(=O)O)c1ccccc1-c1ccccc1 [Example 162] | +++ (NAUC “+++” refers to an observed NAUC>170% of positive control) | +++ (NAUC “+++” refers to an observed NAUC>170% of positive control) |  |  |  | +++ (NAUC “+++” refers to an observed NAUC>170% of positive control)
12 | O=C(Nc1ccccc1-c1ccccc1)[C@H]1[C@H]2CC(F)(F)CN2[C@]2(C(=O)Nc3c(Cl)cc(Cl)cc32)[C@H]1C(=O)O [Example 121] |  |  | +++ (NAUC “+++” refers to an observed NAUC>170% of positive control) | +++ (NAUC “+++” refers to an observed NAUC>170% of positive control) | ++ (NAUC “++” refers to an observed NAUC 170-140% of positive control) | 
13 | CC(C)(C)c1cccc(C2CC2NC(=O)[C@H]2[C@H]3CC(F)(F)CN3C3(C(=O)Nc4c(Cl)cc(Cl)cc43)[C@H]2C(=O)O)c1 (stereo partly shown) [Example 272] |  |  | + (NAUC “+” refers to an observed NAUC <140% of positive control) | + (NAUC “+” refers to an observed NAUC <140% of positive control) | ++ (NAUC “++” refers to an observed NAUC 170-140% of positive control) | 
14 | O=C(Nc1cc(Cl)cc(Cl)c1)C1C(C(F)(F)c2ccccc2)NC2(C(=O)Nc3c(Cl)cc(Cl)cc32)C1C(=O)O (stereo not shown) [Example 39] |  |  |  | +++ (NAUC “+++” refers to an observed NAUC>170% of positive control) | +++ (NAUC “+++” refers to an observed NAUC>170% of positive control) | 
15 | COCCN(C(=O)[C@H]1[C@H]2CC(F)(F)CN2[C@]2(C(=O)Nc3c(Cl)cc(Cl)cc32)[C@H]1C(=O)O)c1cc(Cl)cc(Cl)c1 [Example 132] |  |  | +++ (NAUC “+++” refers to an observed NAUC>170% of positive control) | +++ (NAUC “+++” refers to an observed NAUC>170% of positive control) | +++ (NAUC “+++” refers to an observed NAUC>170% of positive control) | 
16 | CC(C)(C)c1cccc(C2(CNC(=O)[C@H]3[C@H]4CC(F)(F)CN4C4(C(=O)Nc5c(Cl)cc(Cl)cc54)[C@H]3C(=O)O)CC2)c1 (stereo partly shown) [Example 294] |  |  | + (NAUC “+” refers to an observed NAUC <140% of positive control) | +++ (NAUC “+++” refers to an observed NAUC>170% of positive control) | +++ (NAUC “+++” refers to an observed NAUC>170% of positive control) | 
17 | Cc1ccccc1C(F)(F)C1NC2(C(=O)Nc3c(Cl)cc(Cl)cc32)C(C(=O)O)C1C(=O)Nc1cc(Cl)cc(Cl)c1 (stereo not shown) [Example 61] |  |  |  | +++ (NAUC “+++” refers to an observed NAUC>170% of positive control) | +++ (NAUC “+++” refers to an observed NAUC>170% of positive control) | 
18 | Cn1cnc2cc(NC(=O)[C@H]3[C@H]4CC(F)(F)CN4[C@]4(C(=O)Nc5c(Cl)cc(Cl)cc54)[C@H]3C(=O)O)ccc21 [Example 146] | + (NAUC “+” refers to an observed NAUC <140% of positive control) | + (NAUC “+” refers to an observed NAUC <140% of positive control) |  |  |  | 
19 | O=C(O)[C@H]1[C@@H](C(=O)N(CC2(C(F)(F)F)CC2)c2cc(Cl)cc(Cl)c2)[C@H]2CC(F)(F)CN2[C@]12C(=O)Nc1c(Cl)cc(Cl)cc12 [Example 155] | +++ (NAUC “+++” refers to an observed NAUC>170% of positive control) | +++ (NAUC “+++” refers to an observed NAUC>170% of positive control) |  |  |  | + (NAUC “+” refers to an observed NAUC <140% of positive control)
20 | CC(=O)N1C(C(C)C)C(C(=O)Nc2cc(Cl)cc(Cl)c2)C(C(=O)O)C12C(=O)Nc1c(Cl)cc(Cl)cc12 (stereo not shown) [Example 38] |  |  |  | + (NAUC “+” refers to an observed NAUC <140% of positive control) | ++ (NAUC “++” refers to an observed NAUC 170-140% of positive control) | 
21 | NNC(=O)[C@H]1[C@@H](C(=O)Nc2cc(Cl)cc(Cl)c2)[C@H]2CCCN2C12C(=O)Nc1c(Cl)cc(Cl)cc12 (stereo partly drawn) [Example 236, (1′R,2′S,7a′R)-5,7-dichloro-N-(3,5-dichlorophenyl)-2′-(hydrazinecarbonyl)-2-oxo-1′,2′,5′,6′,7′,7a′-hexahydrospiro[indoline-3,3′-pyrrolizine]-1′-carboxamide] |  |  | + (NAUC “+” refers to an observed NAUC <140% of positive control) | ++ (NAUC “++” refers to an observed NAUC 170-140% of positive control) | +++ (NAUC “+++” refers to an observed NAUC>170% of positive control) | 
22 | CC(C)(C)c1cccc(CCNC(=O)C2C3N(CCC3(F)F)C3(C(=O)Nc4c(Cl)cc(Cl)cc43)C2C(=O)O)c1 (single isomer, unassigned) [Example 267, 1′-((3-(tert-butyl)phenethyl)carbamoyl)-5,7-dichloro-7′,7′-difluoro-2-oxo-1′,2′,5′,6′,7′,7a′-hexahydrospiro[indoline-3,3′-pyrrolizine]-2′-carboxylic acid] |  |  | +++ (NAUC “+++” refers to an observed NAUC>170% of positive control) | +++ (NAUC “+++” refers to an observed NAUC>170% of positive control) | +++ (NAUC “+++” refers to an observed NAUC>170% of positive control) | 
23 | CN(C(=O)[C@H]1[C@H]2CC(F)(F)CN2[C@]2(C(=O)N(COC(=O)C(C)(C)C)c3c(Cl)cc(Cl)cc32)[C@H]1C(=O)OCOC(=O)C(C)(C)C)c1cc(Cl)cc(Cl)c1 (racemic) [Example 251c, rac-(pivaloyloxy)methyl (1′R,2′S,3R,7a′R)-5,7-dichloro-1-((3,5-dichlorophenyl)(methyl)carbamoyl)-6′,6′-difluoro-2-oxo-1-((pivaloyloxy)methyl)-1′,2′,5′,6′,7′,7a′-hexahydrospiro[indoline-3,3′-pyrrolizine]-2′-carboxylate] |  |  |  |  | + (NAUC “+” refers to an observed NAUC <140% of positive control) | 
